Test results: patent publication US11999746B2, “Compounds” (GlaxoSmithKline Intellectual Property Development Limited, priority 2014, dated 2024)

target: T1, recombinant human Lp-PLA2 (Homo sapiens, UniProt Q13093); test: (1a) PED6 assay, recombinant human Lp-PLA2 (rhLp-PLA2); type: biochemical; conditions: Examples 1-167 and 413-430 were tested here, one experiment or average of multiple experiments, read-out: rhLp-PLA2 (pIC50) (converted)
T1 sequence (Q13093 22-441): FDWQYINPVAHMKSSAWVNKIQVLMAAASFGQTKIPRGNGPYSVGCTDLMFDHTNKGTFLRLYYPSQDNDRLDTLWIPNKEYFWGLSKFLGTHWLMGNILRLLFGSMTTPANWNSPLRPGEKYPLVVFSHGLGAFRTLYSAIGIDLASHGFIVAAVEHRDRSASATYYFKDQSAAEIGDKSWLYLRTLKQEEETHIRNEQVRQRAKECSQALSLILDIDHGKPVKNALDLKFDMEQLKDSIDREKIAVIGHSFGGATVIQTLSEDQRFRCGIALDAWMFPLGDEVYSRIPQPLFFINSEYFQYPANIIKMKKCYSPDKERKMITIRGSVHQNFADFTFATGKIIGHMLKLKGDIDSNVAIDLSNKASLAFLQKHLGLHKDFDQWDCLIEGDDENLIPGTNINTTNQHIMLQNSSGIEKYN
From the text: (1) Recombinant Human Lp-PLA2 Assays (rhLp-PLA2)
N-((6-(2,4-Dinitrophenyl)amino)-hexanoyl)-2-(4,4-difluoro-5,7-dimethyl-4-bora-3a,4a-diaza-s-indacene-3-pentanoyl)-1-hexadecanoyl-sn-glycero-3-phosphoethanolamine, triethylammonium salt (PED6) is a commercially available fluorescently-labeled phospholipid, which is commercially available from Invitrogene and Molecular Probes. There is a quenching […] and a Bodipy fluorescein (FL) group in the sn2 position. Upon cleavage with Lp-PLA2, the Bodipy FL group is liberated and then may result in an increase in fluorescence. Inhibitors of Lp-PLA2 therefore prevent this cleavage and no fluorescent increase is observed.
The PED6 assay was run as an unquenched 10 μL assay. The source plate containing the compounds to be tested was prepared by making 1:3 (by volume) serial dilution of the compounds within DMSO on 384-well microplate. Then, 0.01 μL of the compounds on compound source plate were transferred into 384 well Greiner 784076 (black) plates using ECHO liquid dispenser. 5 μL of recombinant human Lp-PLA2 enzyme (4 nM) rhLp-PLA2 in assay buffer of 50 mM HEPES, pH 7.4, 150 mM NaCl, 1 mM CHAPS) was added to each well of the plate. Plates were centrifuged for 10 sec at 500 rpm. After 30 minutes preincubation, 5 μL of substrate (4 μM PED6 [from 5 mM DMSO stock] in assay buffer of 50 mM HEPES, pH 7.4, 150 mM NaCl, 1 mM CHAPS) was added to 384 well Greiner 784076 (black) plates. Plates were centrifuged for 10 sec at 500 rpm. The plate was covered to protect it from light and incubated for 20 min at room temperature. The plates were read for fluorescence intensity at ex: 480/em: 540 using ViewLux microplate imager for Envision spectrofluroimeters. pIC50 data, curve and QC analysis was conducted by using XL fit module in Excel.

`N#Cc1ccc(COc2cc3n(c(=O)n2)CC2CCCCN32)cc1` (centres unmarked) [Example E4, 4-(((1-Oxo-6,7,8,9,9a,10-Hexahydro-1H-pyrido[1′,2′:3,4]imidazo[1,2-c]pyrimidin-3-yl)oxy)methyl)benzonitrile] and `Cc1ccc(COc2cc3n(c(=O)n2)CC2CCCCN32)cc1` (centres unmarked) [Example E9, 3-((4-Methylbenzyl)oxy)-6,7,8,9,9a,10-hexahydro-1H-pyrido[1,2′:3,4]imidazo[1,2-c] pyrimidin-1-one] cannot be ordered by IC50: at most 10 µM for the first, at most 10 µM for the second.

`O=c1nc(OCc2ccc(C(F)(F)F)c(Cl)c2)cc2n1CC1CCCCN21` (centres unmarked) [Example E7, 3-((3-Chloro-4-(trifluoromethyl)benzyl)oxy)-6,7,8,9,9a,10-hexahydro-1H-pyrido[1′,2′:3,4] imidazo[1,2-c]pyrimidin-1-one] and `O=c1nc(OCc2ccc(F)c(C(F)(F)F)c2)cc2n1CC1CCCCN21` (centres unmarked) [Example E13, 3-((4-Fluoro-3-(trifluoromethyl)benzyl)oxy)-6,7,8,9,9a,10-hexahydro-1H-pyrido-[1′,2′:3,4] imidazo[1,2-c]pyrimidin-1-one] cannot be ordered by IC50: at most 10 µM for the first, at most 10 µM for the second.

target: T2, Lp-PLA2 in human plasma (Homo sapiens, UniProt Q13093); test: (3a) Lp-PLA2 human plasma Thio-PAF assay; type: biochemical; conditions: (3a) Thio-PAF assay, pooled human plasma; Examples 1-265 and 413-430 were tested here; read-out: pIC50 in the Lp-PLA2 human plasma assay (converted)
T2 construct: from tissue; host or cells: pooled human plasma
T2 sequence (Q13093 22-441): T1 sequence (Q13093 22-441)
From the text: (3) Lipoprotein-Associated Phospholipase A2 (Lp-PLA2) Human Plasma Assay
The human plasma assay utilizes a thioester analog of PAF (phosphatidylcholine), where hydrolysis yields to the formation of a phospholipid containing a free thiol group. The amount of thiol is quantitated continuously by reacting with CPM (7-diethylamino-3-(4′-maleimidylphenyl)-4-methylcoumarin), a maleimide which increases in fluoresence after Michael addition of thiols. This assay may detect the activity of Lp-PLA2 in human plasma, as determined by specific inhibition by Lp-PLA2 inhibitors.
The thio-PAF assay was run as a quenched 15 μL assay. Compounds source plate was prepared by making 1:3 (by volume) serial dilution of the compounds into pure DMSO on 384-well microplate. 0.01 μL of compounds on compound source plate were transferred to 384 well Greiner 784076 (black) low-volume plates by ECHO liquid dispenser. 8 μL pooled human plasma, which was previously aliquoted and frozen, was added. Plates were centrifuged for 10 sec at 500 rpm. After 30 minutes preincubation, 2 μL of substrate solution comprising 2.5 mM 2-thio-PAF [from ethanol stock], 32 μM CPM [from a DMSO stock] and 3.2 mM NEM (N-ethylmaleimide) [made fresh daily in DMSO] in assay buffer of 50 mM HEPES, pH 7.4, 150 mM NaCl, 1 mM CHAPS was added to 384 well Greiner 784076 (black) low-volume plates by BRAVO liquid handling station. After 2 mins, reaction was quenched with 5 μL of 5% aqueous trifluoroacetic acid (TFA). Plates were covered to protect from light and incubated for 40 min at room temperature. Plates were read at ex: 380/em: 485 using Envision microplate reader. PIC50 data, curve and QC analysis were conducted by using XLFit module in Excel.

`CCCCN1CC(Oc2c(F)cc(COc3cc4n(c(=O)n3)C[C@@H]3CCCN43)cc2F)C1` [Example E207, (S)-3-((4-((1-butylazetidin-3-yl)oxy)-3,5-difluorobenzyl)oxy)-7,8,8a,9-tetrahydropyrrolo[1′,2′:3,4]imidazo[1,2-c]pyrimidin-1(6H)-one] and `O=c1nc(OCc2cc(F)cc(F)c2)cc2n1C[C@@H]1CCCN21` [Example E215, (S)-3-((3,5-difluorobenzyl)oxy)-7,8,8a,9-tetrahydropyrrolo[1′,2′:3,4]imidazo[1,2-c]pyrimidin-1(6H)-one] cannot be ordered by IC50: at most 10 µM for the first, at most 10 µM for the second.

`O=c1nc(OCc2cccc(F)c2F)cc2n1C[C@@H]1CCCN21` [Example E212, (S)-3-((2,3-difluorobenzyl)oxy)-7,8,8a,9-tetrahydropyrrolo[1′,2′:3,4]imidazo[1,2-c]pyrimidin-1(6H)-one] and `O=c1nc(OCc2cccc(F)c2F)cc2n1C[C@@H]1COCCN21` [Example E221, (R)-7-((2,3-difluorobenzyl)oxy)-3,4,11,11a-tetrahydropyrimido[6′,1′:2,3]imidazo[5,1-c][1,4]oxazin-9(1H)-one] cannot be ordered by IC50: at most 10 µM for the first, at most 0.1 µM for the second.

`O=c1nc(OCc2cccc(F)c2)cc2n1C[C@@H]1CCCN21` [Example E214, (S)-3-((3-fluorobenzyl)oxy)-7,8,8a,9-tetrahydropyrrolo[1,2′:3,4]imidazo[1,2-c]pyrimidin-1(6H)-one] and `O=c1nc(OCCc2cccc(F)c2)cc2n1C[C@H]1CCCN21` [Example E249, (R)-3-(3-fluorophenethoxy)-7,8,8a,9-tetrahydropyrrolo[1′,2′:3,4]imidazo[1,2-c]pyrimidin-1(6H)-one] cannot be ordered by IC50: at most 10 µM for the first, at most 10 µM for the second.

`O=c1nc(NCc2ccc(F)cc2F)cc2n1C[C@H]1CCCN21` [Example E216, (R)-3-((2,4-difluorobenzyl)amino)-7,8,8a,9-tetrahydropyrrolo[1,2′:3,4]imidazo[1,2-c] pyrimidin-1(6H)-one] and `O=c1nc(OCc2cc(F)c(F)cc2F)cc2n1C[C@H]1CCCN21` [Example E218, (R)-3-((2,4,5-trifluorobenzyl)oxy)-7,8,8a,9-tetrahydropyrrolo[1′,2′:3,4]imidazo[1,2-c]pyrimidin-1(6H)-one] cannot be ordered by IC50: at most 10 µM for the first, at most 10 µM for the second.

`O=c1nc(OCc2cc(F)c(F)cc2F)cc2n1C[C@@H]1COCCN21` [Example E219, (R)-7-((2,4,5-trifluorobenzyl)oxy)-3,4,11,11a-tetrahydropyrimido[6′,1′:2,3]imidazo[5,1-c] [1,4]oxazin-9(1H)-one] and `O=c1nc(OCc2cc(F)c(F)cc2F)cc2n1C[C@H]1COCCN21` [Example E220, (S)-7-((2,4,5-trifluorobenzyl)oxy)-3,4,11,11a-tetrahydropyrimido[6′,1′:2,3]imidazo[5,1-c] [1,4]oxazin-9(1H)-one] cannot be ordered by IC50: at most 10 µM for the first, at most 10 µM for the second.

`O=c1nc(OCc2cc(F)c(F)cc2F)cc2n1C[C@H]1CCCCN21` [Example E225, (R)-3-((2,4,5-trifluorobenzyl)oxy)-6,7,8,9,9a,10-hexahydro-1H-pyrido[1′,2′:3,4]imidazo[1,2-c]pyrimidin-1-one] and `O=c1nc(OCc2cc(F)c(OC3(CCF)CC3)c(F)c2)cc2n1C[C@@H]1COCCN21` [Example E258, (R)-7-((3,5-difluoro-4-(1-(2-fluoroethyl)cyclopropoxy)benzyl)oxy)-3,4,11,11a-tetrahydropyrimido[6′,1′:2,3]imidazo[5,1-c][1,4]oxazin-9(1H)-one] cannot be ordered by IC50: at most 10 µM for the first, at most 10 µM for the second.

`O=c1nc(OCCc2cccc(F)c2)cc2n1C[C@@H]1COCCN21` [Example E246, (R)-7-(3-fluorophenethoxy)-3,4,11,11a-tetrahydropyrimido[6′,1′:2,3]imidazo[5,1-c][1,4] oxazin-9(1H)-one] and `O=c1nc(OCCc2cccc(F)c2)cc2n1C[C@H]1COCCN21` [Example E248, (S)-7-(3-fluorophenethoxy)-3,4,11,11a-tetrahydropyrimido[6′,1′:2,3]imidazo[5,1-c][1,4] oxazin-9(1H)-one] cannot be ordered by IC50: at most 10 µM for the first, at most 10 µM for the second.

`N#Cc1ccc(CCOc2cc3n(c(=O)n2)C[C@H]2CCCN32)cc1` [Example E254, (R)-4-(2-((1-oxo-1,6,7,8,8a,9-hexahydropyrrolo[1′,2′:3,4]imidazo[1,2-c]pyrimidin-3-yl)oxy)ethyl)benzonitrile] and `N#Cc1ccc(CCOc2cc3n(c(=O)n2)C[C@H]2COCCN32)cc1` [Example E255, (S)-4-(2-((9-oxo-1,3,4,9,11,11a-hexahydropyrimido[6′,1′:2,3]imidazo[5,1-c][1,4]oxazin-7-yl)oxy)ethyl)benzonitrile] cannot be ordered by IC50: at most 10 µM for the first, at most 10 µM for the second.

`O=c1nc(CCc2cccc(F)c2)cc2n1C[C@@H]1COCCN21` [Example E256, (R)-7-(3-fluorophenethyl)-3,4,11,11a-tetrahydropyrimido[6′,1′:2,3]imidazo[5,1-c][1,4]oxazin-9(1H)-one] and `O=c1nc(CCc2cccc(F)c2)cc2n1C[C@H]1COCCN21` [Example E257, (S)-7-(3-fluorophenethyl)-3,4,11,11a-tetrahydropyrimido[6′,1′:2,3]imidazo[5,1-c][1,4] oxazin-9(1H)-one] cannot be ordered by IC50: at most 10 µM for the first, at most 10 µM for the second.

In the case of `O=c1nc(OCc2cc(F)c(OC3(CCF)CC3)c(F)c2)cc2n1C[C@H]1COCCN21` [Example E262, (S)-7-((3,5-difluoro-4-(1-(2-fluoroethyl)cyclopropoxy)benzyl)oxy)-3,4,11,11a-tetrahydropyrimido[6′,1′:2,3]imidazo[5,1-c][1,4]oxazin-9(1H)-one], the IC50 is reported as at most 10 µM.
